Test results taken from paper PMC7017353, “Delineating the Molecular Basis of the Calmodulin–bMunc13-2 Interaction by Cross-Linking/Mass Spectrometry—Evidence for a Novel CaM Binding Motif in bMunc13-2” (Cells, 2020).
Where a SMILES comes first, the peptide text is derived from it.

Tested on: recombinant CaM
Experiment: Photoaffinity labeling (PAL)-based competition assay
Type: binding
Conditions: photoprobe segment-C-Bpa 5 µM, CaM 5 µM, 200 µM Ca2+, SDS-PAGE and MALDI-TOF-MS; for suppression of photoadduct formation (in words): competitor up to 50-fold molar excess; for molar excess of competitor for complete suppression of photoadduct formation (full displacement of photoprobe): competitor 0–250 µM, 2 h RT
Protocol: Photoreactive peptides were synthesized by Fmoc chemistry using the amino acid derivative Fmoc-para-benzoylphenylalanine (Bpa, Novabiochem). Photoaffinity labeling (PAL)-based competition experiments with recombinant CaM were performed and analyzed as described previously. Briefly, CaM (5 µM) and segment-C-Bpa (5 µM) or segment-CS-Bpa (5 µM) were incubated in 50 mM HEPES (pH 7.2), 150 mM KCl, 5 mM DTT for 2 h at RT in the dark with (200 µM Ca^2+) or without (2 mM EGTA) calcium, and in the presence of increasing concentrations (0–250 μM) of competitor peptides. Following UV irradiation, photoadduct formation was visualized and quantified by SDS-PAGE and linear matrix-assisted laser desorption/ionization–time-of-flight–mass spectrometry (MALDI-TOF-MS).

| Compound | suppression of photoadduct formation (in words) | molar excess of competitor for complete suppression of photoadduct formation (full displacement of photoprobe) [fold molar excess] |
| --- | --- | --- |
| 703KLSLEQVCAETIYLNKCINNDKNVLREKRLRQKKLLQELV742 [Segment F723D, segment-C variant with F723 exchanged to aspartic acid] | not able to displace segment-C-Bpa at all | – |
| 719 CINNFKNVLREKRLRQKKLLQELV 742 [segment-CS] | could not suppress photoadduct formation | > 50 |
| 719CINNFKNVLREKRLRQKKLLQELVQTASHLSVED742 [segment-CL] | could not suppress photoadduct formation | > 50 |
| CC[C@H](C)[C@H](NC(=O)[C@H](CS)NC(=O)[C@H](CCCCN)NC(=O)[C@H](CC(N)=O)NC(=O)[C@H](CC(C)C)NC(=O)[C@H](Cc1ccc(O)cc1)NC(=O)[C@@H](NC(=O)[C@@H](NC(=O)[C@H](CCC(=O)O)NC(=O)[C@H](C)NC(=O)[C@H](CS)NC(=O)[C@H](CC(=O)O)NC(=O)[C@H](CCC(N)=O)NC(=O)[C@H](CCC(=O)O)NC(=O)[C@H](CC(C)C)NC(=O)[C@H](CO)NC(=O)[C@H](CC(C)C)NC(=O)[C@H](CCCCN)NC(C)=O)[C@@H](C)O)[C@@H](C)CC)C(=O)N[C@@H](CC(N)=O)C(=O)N[C@@H](CC(N)=O)C(=O)N[C@@H](Cc1ccccc1)C(=O)N[C@@H](CCCCN)C(=O)N[C@@H](CC(N)=O)C(=O)N[C@H](C(=O)N[C@@H](CC(C)C)C(=O)N[C@@H](CCCNC(=N)N)C(=O)N[C@@H](CCC(=O)O)C(=O)N[C@@H](CCCCN)C(=O)N[C@@H](CCCNC(=N)N)C(=O)N[C@@H](CC(C)C)C(=O)N[C@@H](CCCNC(=N)N)C(=O)N[C@@H](CCC(N)=O)C(=O)N[C@@H](CCCCN)C(=O)N[C@@H](CCCCN)C(=O)N[C@@H](CC(C)C)C(=O)N[C@@H](CC(C)C)C(=O)N[C@@H](CCC(N)=O)C(=O)N[C@@H](CCC(=O)O)C(=O)N[C@@H](CC(C)C)C(=O)N[C@H](C(N)=O)C(C)C)C(C)C [Segment V709D] (Ac-KLSLEQDCAETIYLNKCINNFKNVLREKRLRQKKLLQELV-NH2; N-terminus and C-terminus assumed) | – | > 50 |
